The nature of data set [1]: Acute toxicity (mouse, intraperitoneal). As to conditions: in vivo, ip, 1:1 (by mole) mixture of compound (I) and sodium carbonate, anhydrate basis, read-out: CD50 (the source's name). An excerpt:
(§1) The antibacterial potency (in terms of MIC) and toxicity of the contemplated compound (I) on anhydrate basis
(2) Acute toxicity (mouse, intraperitoneal)
The acute toxicity data relates to a 1:1 (by mole) mixture of contemplated compound (I) and sodium carbonate.

Data set [2] is described as follows: Stability in storage / shelf-life (statement). Format: physicochemical.
Data set [3] has as its system Proteus morganii IFO 3848. In words: Antibacterial spectrum (agar dilution), MIC. Format: cell-based. As to conditions: Morganella morganii, IFO3848, on anhydrate basis, P. morganii IFO 3848.
From the text: as §1
(§2) (1) Antibacterial spectrum (agar dilution)

For a further data set, the system named is Klebsiella pneumoniae DT. In words: Antibacterial spectrum (agar dilution), MIC. Format: cell-based. The conditions noted are these: on anhydrate basis, K. pneumoniae DT.
From the text: as §1, §2
In general terms: In agar dilution, organisms are placed on agar that contains the substance at set levels.

Data set [4] concerns Proteus vulgaris IFO 3988. In words: Antibacterial spectrum (agar dilution), MIC. The conditions noted are these: IFO3988, on anhydrate basis, P. vulgaris IFO 3988. Format: cell-based.
From the text: as §1, §2

A further data set concerns Escherichia coli T-7. In words: Antibacterial spectrum (agar dilution), MIC. Format: cell-based. The conditions noted are these: T7, on anhydrate basis, E. coli T-7.
From the text: as §1, §2

The test system of data set [5] is Staphylococcus aureus FDA 209 P. In words: Antibacterial spectrum (agar dilution), MIC. The conditions noted are these: FDA209, on anhydrate basis, S. aureus FDA 209 P. Format: cell-based.
From the text: as §1, §2

The next data set relates to Escherichia coli O-111. In words: Antibacterial spectrum (agar dilution), MIC. Format: cell-based. As to conditions: O111, on anhydrate basis, E. coli O-111.
From the text: as §1, §2

For data set [6], the system named is Staphylococcus aureus 1840. In words: Antibacterial spectrum (agar dilution), MIC. Format: cell-based. The conditions noted are these: on anhydrate basis, S. aureus 1840.
From the text: as §1, §2

Data set [7] concerns Escherichia coli NIHJ JC-2. In words: Antibacterial spectrum (agar dilution), MIC. Format: cell-based. As to conditions: NIHJJC2, on anhydrate basis, E. coli NIHJ JC-2.
From the text: as §1, §2

The nature of data set [8]: Storage stability in sealed vial at 50° C. for 4 weeks, % residue. Format: physicochemical. As to conditions: 40320 min. The protocol: One sample each of the following compounds was stored in a sealed vial at 50° C. for 4 weeks.
The sodium salt, zwitter ion, and monohydrochloride of 7β-[2-(2-imino-4-thiazoline-4-yl)acetamido]-3-[1-[2-(N,N-dimethylamino)ethyl]-1H-tetrazol-5-yl]thiomethyl-3-cephem-4-carboxylic acid, as well as the lyophilized powders of said acid dihydrochloride (amorphous powders, Example 4-(2)), the crystals of said acid dihydrochloride (Example 1-(3)) and the non-crystalline powders obtained by drying said dihydrochloride crystals (Example 1-(4)) as obtained in accordance with this invention.
The percent residue figures are as follows.

The nature of data set [9]: Water solubility (statement). Format: physicochemical.
For data set [10] the following is noted: West German Patent Application Laid Open No. 2461478; cited from earlier work.
Data set [11] has as its system Bacillus subtilis ATCC 6633. In words: Bioassay by the cylinder method. Format: cell-based. How it is done: The bioassay by the cylinder method was carried out using 7β-[2-(2-imino-4-thiazolin-4-yl)acetamido]-3-[1-[2-(N,N-dimethylamino)ethyl]-1H-tetrazol-5-yl]thiomethyl-3-cephem-4-carboxylic acid .2H Cl salt as the standard product against Bacillus subtilis ATCC 6633 as the assay microorganism.
The potency of the anhydrous zwitter ion compound was 1000 mcg/ml. The calculated potency of a sample containing 2 moles of HCl per mole of the zwitter ion compound and none of non-bonding hydrochloric acid, water, residual solvent or other impurity is 878 mcg/ml.

≈ marks a conversion by molar mass, not a printed value. Counter-ions that a name gives are not always drawn. Like-named read-outs stand apart in the source and are kept apart here.

For orientation: MIC means the lowest concentration found to suppress growth. Regarding `CN(C)CCn1nnnc1SCC1=C(C(=O)O)N2C(=O)[C@@H](NC(=O)Cc3csc(N)n3)[C@H]2SC1` [compound (I)], the LD50 in [1] was not below 20000 mg/kg. Further, in data set [2], the stability in storage result is “highly stable in storage”. Also, the MIC in data set [3] came to 0.39 µg/mL (≈ 0.742 µM); in the data set on Klebsiella pneumoniae DT it was 0.1 µg/mL (≈ 0.19 µM); in [4], 1.56 µg/mL (≈ 2.97 µM); in the data set with Escherichia coli T-7, 1.56 µg/mL (≈ 2.97 µM); in data set [5] it was 0.39 µg/mL (≈ 0.742 µM); with Escherichia coli O-111, 0.05 µg/mL (≈ 0.0951 µM). Further, the MIC was 0.78 µg/mL (≈ 1.48 µM) in data set [6] and 0.2 µg/mL (≈ 0.38 µM) in [7].
For the compound `CN(C)CCn1nnnc1SCC1=C(C(=O)O)N2C(=O)[C@@H](NC(=O)Cc3csc(N)n3)[C@H]2SC1` [Example 1-(4), 7β-[2-(2-imino-4-thiazolin-4-yl)acetamido]-3-[1-[2-(N,N-dimethylamino)ethyl]-1H-tetrazol-5-yl]thiomethyl-3-cephem-4-carboxylic acid], in data set [8], the “% Residue” value was 98%.
On to `CN(C)CCn1nnnc1SCC1=C(C(=O)O)N2C(=O)[C@@H](NC(=O)Cc3csc(N)n3)[C@H]2SC1` [compound (II), 7β-[2-(2-imino-4-thiazolin-4-yl)acetamido]-3-[1-[2-(N,N-dimethylamino)ethyl]-1H-tetrazol-5-yl]thiomethyl-3-cephem-4-carboxylic acid, reference compound], for which, in data set [9], the water solubility result was “high water solubility”. Also, the antibiotic activity result in data set [10] is “excellent antibiotic activity”. Moreover, in data set [8] (listed as Zwitter ion(lyophilizate)), the “% Residue” value was found to be 54%. Moreover, the “Bioassay (potency)” value in data set [11] (listed as anhydrous zwitter ion compound) amounted to 1000 µg/mL. In addition, the “stability on long shelf-life” value in data set [2] (free acid form (zwitter ion) or salt with a base) is recorded as “unstable in the free acid form (zwitter ion) or its salt with a base”.
As to `CN(C)CCn1nnnc1SCC1=C(C(=O)O)N2C(=O)[C@@H](NC(=O)Cc3csc(N)n3)[C@H]2SC1` [Sodium salt (lyophilizate), 7β-[2-(2-imino-4-thiazoline-4-yl)acetamido]-3-[1-[2-(N,N-dimethylamino)ethyl]-1H-tetrazol-5-yl]thiomethyl-3-cephem-4-carboxylic acid, reference compound], the “% Residue” value in [8] was found to be 76%.
Still for that read-out and setting: the same measure for `CN(C)CCn1nnnc1SCC1=C(C(=O)O)N2C(=O)[C@@H](NC(=O)Cc3csc(N)n3)[C@H]2SC1` [Example 1-(3), 7β-[2-(2-imino-4-thiazolin-4-yl)acetamido]-3-[1-[2-(N,N-dimethylamino)ethyl]-1H-tetrazol-5-yl]thiomethyl-3-cephem-4-carboxylic acid]: 99%.
`CN(C)CCn1nnnc1SCC1=C(C(=O)O)N2C(=O)[C@@H](NC(=O)Cc3csc(=N)[nH]3)[C@H]2SC1` [Example 7-(3), 5β-[2-(2-imino-4-thiazolin-4-yl)acetamido]-3-[1-[2-(N,N-dimethylamino)ethyl]-1H-tetrazol-5-yl]thiomethyl-3-cephem-4-carboxylic acid]: in [11], the “Bioassay (potency)” value is 865 µg/mL.
For `CN(C)CCn1nnnc1SCC1=C(C(=O)O)N2C(=O)[C@@H](NC(=O)Cc3csc(N)n3)[C@H]2SC1` [Monohydrochloride (lyophilizate), 7β-[2-(2-imino-4-thiazoline-4-yl)acetamido]-3-[1-[2-(N,N-dimethylamino)ethyl]-1H-tetrazol-5-yl]thiomethyl-3-cephem-4-carboxylic acid, reference compound], the “% Residue” value in [8] is listed as 73%.
Regarding `CN(C)CCn1nnnc1SCC1=C(C(=O)O)N2C(=O)[C@@H](NC(=O)Cc3csc(N)n3)[C@H]2SC1` [Example 4-(2), 7β-[2-(2-imino-4-thiazolin-4-yl)acetamido]-3-[1-[2-(N,N-dimethylamino)ethyl]-1H-tetrazol-5-yl]thiomethyl-3-cephem-4-carboxylic acid], the “% Residue” value in data set [8] is 86%.
